From US9683025B2, “Methods and compositions for treating cancer and inflammatory diseases” (The Regents of the University of Colorado, A Body Corporate, priority 2013, dated 2017)
“Also recorded” adds a separate entry of the source. Like-named read-outs stand apart in the source and are kept apart here. Where a SMILES comes first, the peptide text is derived from it. Where no end group is shown, it is not given here.

Experiments:
[1] = test system: IMQ-based psoriasis model; assay: IMQ-based psoriasis model; format: in vivo, mouse; settings: for resistance to IMQ-induction of psoriasis: treated mice versus PBS control
Protocol: To elucidate the molecular mechanisms for the Pep1-E1A blocker, H&E and immunostaining for proliferative and inflammatory markers was performed.

[2] = test system: IMQ-based psoriasis model; assay: IMQ-based psoriasis model; format: in vivo, mouse; settings: FIG. 15B; for erythema, thickening and scaling (cumulative score): versus PBS
A375 melanoma cells = assay: Cell viability, A375; format: cell-based; settings: A375, CtBP overexpressing, FIG. 5
Excerpt: (§1) The Tat peptide alone has no effect on these cells.

[3] = test system: H1299 non-small cell lung carcinoma cells; assay: Cell viability, H1299; format: cell-based, human; settings: H1299, CtBP overexpressing, FIG. 5
Excerpt: as §1

3T3 cells = assay: Cell viability, 3T3; format: cell-based, mouse; settings: 3T3, does not significantly overexpress CtBP, FIG. 5
Excerpt: as §1

[4] = test system: CtBP target genes BAX, BRCA1, and E-Cadherin; assay: Real-time PCR of endogenous CtBP target genes in H1299 cells; format: cell-based, human; settings: increasing concentrations, FIG. 6
Protocol: Total RNA was isolated using TRIzol (Invitrogen) as previously described (Zhang et al., 2006). One hundred nanograms of RNA from each sample were subjected to qRT-PCR (ThermoFisher). An 18S probe was used as an internal control. Each sample was examined in triplicate. Relative RNA expression levels were determined by normalizing with internal controls, the values were calculated using the comparative Ct method.
Subsequently, the transcription levels of the endogenous CtBP target genes BAX, BRCA1, and E-Cadherin in Tat-E1A treated H1299 cells were evaluated using real-time PCR.

CtBP-E1A interaction [5] = target: T1, CtBP-E1A interaction (Homo sapiens, UniProt Q13363); assay: CtBP-E1A interaction inhibition (AlphaScreen / fluorescence polarization competition assay); format: binding; settings: IC50 value, Table 3; inhibition of CtBP/E1A protein interaction
Protocol: The ability of peptides to inhibit CtBP binding can be monitored by two biochemical assays. An AlphaScreen assay (Perkin-Elmer) was developed that is capable of detecting the CtBP-E1A interaction. Purified GST-E1A and 6xHis-CtBP are incubated with glutathione-conjugated donor beads and nickel-chelated acceptor beads respectively. The interaction between CtBP and E1A brings the donor and acceptor beads in close proximity, which produces a fluorescence signal after laser excitation and can be detected using the EnVision plate reader. A peptide that inhibits this interaction will limit the proximity of the beads and thus a loss in fluorescence signal will occur. In addition to the alphascreen, a fluorescence polarization based assay with a fluorescein-labeled 14mer E1A peptide ([…] (SEQ ID NO: 1)) was also developed. Purified 6xHis-CtBP is incubated with the fluorescein-labeled E1A peptide and changes in the polarization value of the labeled peptide are detected using the EnVision plate reader. A decrease in peptide binding to CtBP can be detected by an […], and used to monitor peptide inhibition. IC50 values of designed peptides can be determined using either of these assays through the addition of increasing amounts in each well and monitoring the degree of inhibition of the CtBP-E1A interaction.
Multiple amino acid sequences may appear at positions outside the conserved peptide motif. The most frequently occurring amino acids in these positions are used to design the peptides that bind CtBP with the highest affinity. The affinity of these new peptides is compared to the original 14mer E1A peptide (SEQ ID NO:1) by comparing the IC50 of these peptides in inhibiting the CtBP/E1A protein interaction in a competition assay. The peptide identified from phage display that competes with the CtBP/E1A protein interaction better than the original 14mer E1A peptide is selected and conjugated to the cell penetrating peptide of the present invention. Also provided in Table 3 are […] for selected peptides.
The ability of peptides to inhibit CtBP binding can be monitored by two biochemical assays. An AlphaScreen assay (Perkin-Elmer) was developed that is capable of detecting the CtBP-E1A interaction. Purified GST-E1A and 6xHis-CtBP are incubated with glutathione-conjugated donor beads and nickel-chelated acceptor beads respectively. The interaction between CtBP and E1A brings the donor and acceptor beads in close proximity, which produces a fluorescence signal after laser excitation and can be detected using the EnVision plate reader. A peptide that inhibits this interaction will limit the proximity of the beads and thus a loss in fluorescence signal will occur. In addition to the alphascreen, a fluorescence polarization based assay with a fluorescein-labeled 14mer E1A peptide ([…] (SEQ ID NO: 1)) was also developed. Purified 6xHis-CtBP is incubated with the fluorescein-labeled E1A peptide and changes in the polarization value of the labeled peptide are detected using the EnVision plate reader. A decrease in peptide binding to CtBP can be detected by an […], and used to monitor peptide inhibition. IC50 values of designed peptides can be determined using either of these assays through the addition of increasing amounts in each well and monitoring the degree of inhibition of the CtBP-E1A interaction. Also provided in Table 4 are IC50 for selected peptides.

CtBP-E1A interaction [6] = target: T1, CtBP-E1A interaction; settings: read-out: IC50 of inhibition of the CtBP/E1A interaction in vitro; Zhang et al. 2000; cited from earlier work
CtBP [7] = target: T2, CtBP (Homo sapiens, UniProt Q13363); assay: Fluorescence polarization Kd determination of FITC-peptide with CtBP; format: binding
T2 construct: 6xHis
Protocol: (§2) Additional peptides were tested for in vitro inhibitory potency (Table 5). For Kd determination, FITC-labeled peptide (FITC-peptide) was incubated with varying concentrations of CtBP. The fluorescence polarization values of the FITC-peptide were measured and plotted against CtBP concentration to determine Kd of the FITC-peptide with CtBP using the Prism program. […] For IC50 determination, a fluorescence polarization assay was utilized. […] Increasing concentrations of unlabeled peptide were added to compete with the FITC-labeled peptide, leading to a decreased fluorescence polarization value.

CtBP [8] = target: T2, CtBP; assay: Fluorescence polarization competition of unlabeled peptide with FITC-labeled 14mer peptide; format: binding
Protocol: as §2

KETWWETWWTEWSQPKKKRKVLEEPGQPLDLSCKRPR [Pep1-E1A]
psoriasis-like phenotype ([1]; applied on the skin (data not shown)): largely reduced | IMQ-induced epithelial hyperplasia and inflammatory cell infiltration in the stroma (H&E) ([1]; compared to PBS-treated skin, FIG. 7A): decreases | BrdU incorporation (proliferation) ([1]; immunostaining, FIG. 7B): largely reduced; also recorded: decreased | CD45 staining (inflammation) ([1]; immunostaining, FIG. 7B): largely prevented; also recorded: decreased | psoriasis-like phenotype ([1]; injected subcutaneously, FIG. 7): largely reduced | resistance to IMQ-induction of psoriasis [1]: showed resistance | erythema, thickening and scaling (cumulative score) [2]: Reduction

GRKKRRQRRRPPQLEEPGQPLDLSCKRPR [Tat-E1A]
cell viability (A375 melanoma cells): reduces the viability | erythema, thickening and scaling (cumulative score) [2]: Reduction | cell viability [3]: reduces the viability | cell viability (3T3 cells): does not affect | CtBP-mediated suppression of target genes BAX, BRCA1, E-Cadherin (transcription levels) [4]: dose-dependent alleviation; also recorded: relieves the suppression

GRKKRRQRRRPPQGGEQTVPVDLSVARPRGL (also: conjugated to FITC) [Tat-E1A peptide]
resistance to IMQ-induction of psoriasis [1]: showed resistance | psoriasis-like phenotype ([2]; Example 12, subcutaneously applied on the skin): significantly reduced

CC(C)C[C@H](NC(=O)[C@H](CC(=O)O)NC(=O)[C@H](CC(C)C)NC(=O)[C@@H]1CCCN1C(=O)[C@H](CCC(N)=O)NC(=O)CNC(=O)[C@@H]1CCCN1C(=O)[C@@H](N)CCC(=O)O)C(=O)N[C@@H](CO)C(=O)N[C@@H](CS)C(=O)N[C@@H](CCCCN)C(=O)N[C@@H](CCCNC(=N)N)C(=O)N1CCC[C@H]1C(=O)N[C@@H](CCCNC(=N)N)C(=O)O [Wild-type, reference compound] (H-EPGQPLDLSCKRPR-OH; N-terminus and C-terminus assumed)
IC50 (CtBP-E1A interaction [5]): 7.26 µM | IC50 (CtBP-E1A interaction [6]): ~7 µM | Kd (CtBP [7]): 4.3 µM | IC50 (CtBP [8]): 6 µM

GRKKRRQRRRPPQ [Tat, cell penetrating peptide alone, control, reference compound]
cell viability (A375 melanoma cells): no effect | cell viability [3]: no effect | cell viability (3T3 cells): no effect
